From ChEMBL document CHEMBL2074084, “Cloning and functional characterization of a novel rat organic anion transporter mediating basolateral uptake of methotrexate in the kidney” (J Biol Chem, 1996) come the findings set out here.

Format in all cases: functional, cell-based
Data set [1] deals with T1, Solute carrier organic anion transporter family member 1A3 (Rattus norvegicus, UniProt P70502).
T1 sequence (P70502 whole entry): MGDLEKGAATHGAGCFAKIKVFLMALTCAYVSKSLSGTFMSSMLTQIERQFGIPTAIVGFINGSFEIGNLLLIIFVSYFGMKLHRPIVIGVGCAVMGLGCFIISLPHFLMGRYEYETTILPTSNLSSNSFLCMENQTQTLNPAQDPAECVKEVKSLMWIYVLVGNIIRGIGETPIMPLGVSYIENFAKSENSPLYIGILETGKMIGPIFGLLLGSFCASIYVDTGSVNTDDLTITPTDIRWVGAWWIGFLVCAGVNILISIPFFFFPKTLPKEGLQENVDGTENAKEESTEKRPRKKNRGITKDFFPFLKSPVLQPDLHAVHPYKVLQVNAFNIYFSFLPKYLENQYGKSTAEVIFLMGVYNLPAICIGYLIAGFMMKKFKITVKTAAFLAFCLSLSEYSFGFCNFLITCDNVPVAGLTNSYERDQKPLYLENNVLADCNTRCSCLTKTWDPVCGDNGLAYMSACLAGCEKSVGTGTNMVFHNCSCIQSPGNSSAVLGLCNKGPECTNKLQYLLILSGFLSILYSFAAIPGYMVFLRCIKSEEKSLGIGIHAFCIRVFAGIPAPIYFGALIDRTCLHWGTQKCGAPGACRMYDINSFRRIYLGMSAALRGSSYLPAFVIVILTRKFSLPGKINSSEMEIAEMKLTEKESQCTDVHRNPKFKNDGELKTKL
The data set is described as follows: TP_TRANSPORTER: inhibition of MTX uptake (MTX: 0.026 uM, BSP: 100 uM) in OAT-K1-expressing LLC-PK1 cells. Conditions: pig, llc-pk1, 100 µM.

Data set [2] has as its target T1, Solute carrier organic anion transporter family member 1A3. The experiment in a line: TP_TRANSPORTER: inhibition of MTX uptake (MTX: 0.026 uM, Folic acid: 100 uM) in OAT-K1-expressing LLC-PK1 cells. Conditions: pig, llc-pk1, 100 µM.
Substrate in data set [3]: CN(Cc1cnc2nc(N)nc(N)c2n1)c1ccc(C(=O)N[C@@H](CCC(=O)O)C(=O)O)cc1
The data set is described as follows: TP_TRANSPORTER: uptake in OAT-K1-expressing LLC-PK1 cells.

Regarding `O=C1OC(c2ccc(O)c(S(=O)(=O)[O-])c2)(c2ccc(O)c(S(=O)(=O)[O-])c2)c2c(Br)c(Br)c(Br)c(Br)c21.[Na+].[Na+]` [SULFOBROMOPHTHALEIN SODIUM], the Activity entry in data set [1] was “inhibitor [(at a rough estimate) 35 % of control]”.

In the case of `Nc1nc2ncc(CNc3ccc(C(=O)N[C@@H](CCC(=O)O)C(=O)O)cc3)nc2c(=O)[nH]1` [FOLIC ACID], the Activity result in data set [2] was “inhibitor [(at a rough estimate) 35 % of control]”.

B1: Solute carrier organic anion transporter family member 1A3 (Rattus norvegicus) (protein)
chain: T1 sequence (P70502 whole entry)
The term Km denotes the concentration of substrate that gives half-maximal velocity. On to B1, for which the Km in data set [3] came to 1 µM.
